Experimental findings from publication PMC5983681, “PIEZO1 Channel Is a Potential Regulator of Synovial Sarcoma Cell-Viability” (International Journal of Molecular Sciences, 2018) are described below.

For orientation: EC50 means the concentration that produces a half-maximal response.

This test deals with T1, PIEZO1 (SW982 cells) (Homo sapiens, UniProt Q92508).
T1 construct: endogenous full-length channel in native SW982 cells; response lost on PIEZO1 siRNA knockdown
The test can be described thus: Fura-2 Ca2+ imaging. Format: cell-based. Particulars: agonist; SBS with […] Ca2+, pH […]-26 °C; native SW982 cells, […] tested; bound only; read-out: apparent EC50.

T1 sequence (Q92508 whole entry): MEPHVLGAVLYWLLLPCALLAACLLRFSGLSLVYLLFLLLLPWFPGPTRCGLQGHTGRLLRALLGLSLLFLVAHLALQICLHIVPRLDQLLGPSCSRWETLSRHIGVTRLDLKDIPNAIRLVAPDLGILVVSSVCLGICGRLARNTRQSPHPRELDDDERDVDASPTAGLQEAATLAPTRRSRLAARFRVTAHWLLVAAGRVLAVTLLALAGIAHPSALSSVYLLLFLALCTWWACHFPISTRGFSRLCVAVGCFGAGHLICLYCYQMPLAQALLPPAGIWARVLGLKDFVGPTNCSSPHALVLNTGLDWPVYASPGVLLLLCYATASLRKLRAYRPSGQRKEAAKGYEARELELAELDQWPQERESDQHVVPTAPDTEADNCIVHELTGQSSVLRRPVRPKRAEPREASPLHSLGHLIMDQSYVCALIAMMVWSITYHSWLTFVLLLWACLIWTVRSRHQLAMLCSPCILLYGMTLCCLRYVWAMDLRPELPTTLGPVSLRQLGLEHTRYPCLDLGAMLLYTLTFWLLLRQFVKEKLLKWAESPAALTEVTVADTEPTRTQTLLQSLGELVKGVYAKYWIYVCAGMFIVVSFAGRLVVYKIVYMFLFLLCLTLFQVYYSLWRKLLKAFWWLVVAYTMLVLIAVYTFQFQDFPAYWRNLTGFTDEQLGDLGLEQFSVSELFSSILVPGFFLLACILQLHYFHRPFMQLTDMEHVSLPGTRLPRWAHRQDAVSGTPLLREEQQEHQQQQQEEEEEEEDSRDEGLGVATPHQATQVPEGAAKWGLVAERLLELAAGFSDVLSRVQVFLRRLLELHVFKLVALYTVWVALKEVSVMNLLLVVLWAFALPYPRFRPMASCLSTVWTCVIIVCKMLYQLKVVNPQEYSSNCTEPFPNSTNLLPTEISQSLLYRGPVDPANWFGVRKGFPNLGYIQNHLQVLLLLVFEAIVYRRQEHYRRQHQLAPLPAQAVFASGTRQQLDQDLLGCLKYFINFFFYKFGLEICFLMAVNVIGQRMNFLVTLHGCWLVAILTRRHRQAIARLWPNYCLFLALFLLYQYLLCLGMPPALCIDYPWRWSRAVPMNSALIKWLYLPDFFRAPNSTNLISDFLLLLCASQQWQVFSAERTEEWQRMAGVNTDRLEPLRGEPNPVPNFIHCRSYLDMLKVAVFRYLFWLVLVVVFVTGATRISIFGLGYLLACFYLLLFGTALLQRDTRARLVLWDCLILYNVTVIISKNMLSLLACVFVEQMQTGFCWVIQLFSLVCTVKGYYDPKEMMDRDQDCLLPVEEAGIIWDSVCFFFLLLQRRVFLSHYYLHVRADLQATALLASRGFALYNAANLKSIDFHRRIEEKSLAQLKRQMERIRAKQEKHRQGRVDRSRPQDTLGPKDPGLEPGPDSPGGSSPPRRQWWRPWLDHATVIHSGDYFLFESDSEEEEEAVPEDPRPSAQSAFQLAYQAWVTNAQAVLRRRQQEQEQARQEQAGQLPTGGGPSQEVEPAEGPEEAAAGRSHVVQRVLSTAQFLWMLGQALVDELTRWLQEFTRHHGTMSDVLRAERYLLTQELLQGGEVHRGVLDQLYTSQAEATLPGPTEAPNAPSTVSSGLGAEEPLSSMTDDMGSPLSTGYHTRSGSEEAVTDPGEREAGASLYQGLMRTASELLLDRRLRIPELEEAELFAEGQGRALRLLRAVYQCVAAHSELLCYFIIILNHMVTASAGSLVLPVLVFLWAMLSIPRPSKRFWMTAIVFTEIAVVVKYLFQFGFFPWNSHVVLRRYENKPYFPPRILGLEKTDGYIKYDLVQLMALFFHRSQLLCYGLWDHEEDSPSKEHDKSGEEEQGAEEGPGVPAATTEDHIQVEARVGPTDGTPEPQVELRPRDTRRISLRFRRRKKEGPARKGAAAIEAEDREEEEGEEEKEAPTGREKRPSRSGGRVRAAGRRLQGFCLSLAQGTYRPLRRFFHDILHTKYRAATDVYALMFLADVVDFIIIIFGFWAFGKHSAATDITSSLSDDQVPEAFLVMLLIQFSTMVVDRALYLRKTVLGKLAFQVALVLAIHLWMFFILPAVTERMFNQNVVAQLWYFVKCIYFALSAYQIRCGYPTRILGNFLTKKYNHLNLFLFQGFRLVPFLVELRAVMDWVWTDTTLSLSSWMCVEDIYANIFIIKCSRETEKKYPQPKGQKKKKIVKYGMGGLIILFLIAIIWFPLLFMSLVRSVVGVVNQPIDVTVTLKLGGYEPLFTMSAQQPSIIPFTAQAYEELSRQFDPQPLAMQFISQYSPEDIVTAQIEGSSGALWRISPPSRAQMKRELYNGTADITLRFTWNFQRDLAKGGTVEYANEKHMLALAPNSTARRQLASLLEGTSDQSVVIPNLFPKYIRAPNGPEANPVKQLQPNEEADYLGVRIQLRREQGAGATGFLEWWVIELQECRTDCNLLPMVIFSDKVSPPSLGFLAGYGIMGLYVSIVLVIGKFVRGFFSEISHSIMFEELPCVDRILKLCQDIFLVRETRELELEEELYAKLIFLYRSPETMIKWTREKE

Turning to `Clc1cccc(Cl)c1CSc1nnc(-c2cnccn2)s1` [Yoda1, 2-[5-[[(2,6-Dichlorophenyl)methyl]thio]-1,3,4-thiadiazol-2-yl]-pyrazine], the EC50 was less than 1000 nM.
